Assay results from patent publication US8221736B2, “Semiochemical” (Rothamsted Research Limited, priority 1999, dated 2012).
Marks after values point to notes of the source that are not given here.

What was measured:
[1] = test system: broad bean, V. faba (cv The Sutton); experiment: Induction of volatile release by bean plants (air entrainment, GC/GC-MS); assay type: in vivo, Vicia faba; conditions: 24 hour exposure at 100 μg/l in air; from some replicates
Description: A possible role for the compound as an airborne plant signal was investigated using the broad bean, V. faba (cv The Sutton). Plants were kept for 24 hours in clean air or in air incorporating cis-jasmone at 100 μg/l; subsequently, samples of volatiles released by the plants were obtained by entrainment over 4 periods of 48 hours, i.e. up to 192 hours after the end of the treatment. The cis-jasmone itself was undetectable after 48 hours. […] There was also, from some replicates, enhancement of (E,E)-α-farnesene, (−)-β-caryophyllene and (E)-4,8-dimethyl-1,3,7-nonatriene. These compounds have all been implicated in herbivorous insect-induced production and increased parasitoid foraging. The nonatriene can also be produced innately by plants imitating damage for defence against herbivores and which are thus attractive to parasitoids.
Bean plants, V. faba (cv The Sutton) were grown under standard glasshouse conditions until the 2-4 leaf stage when they were rinsed free of soil and transplanted into baked glass jars containing washed sand, with 3 plants per jar. These were left for 1-2 days to acclimatize. Plants to be treated (three jars of three plants each) were sealed in a 25 l glass tank for 24 hours with either cis-jasmone or methyl jasmonate (2.5 mg) applied to a piece of filter paper (Whatman No. 1) placed on the floor of the tank. […]

[2] = test system: aphid parasitoid Aphidius ervi; experiment: Wind tunnel single choice test of A. ervi with synthetic compounds on filter paper; assay type: in vivo; conditions: 10 μg on filter paper, hexane control 26.7
Excerpt: Since semiochemicals acting as repellents or inhibitors of host attractancy for herbivorous insects are often involved in predation or parasitism, the activity of cis-jasmone was also investigated at higher trophic levels. […] These experiments indicate a behavioural role for cis-jasmone in influencing interactions between plants, herbivorous insects and their predators and parasitoids. Naive female A. ervi were flown in a wind tunnel, as described in J. Chem. Ecol. 16, 381-396 (1996) (Poppy et al.). The parasitoids were released 25 cm downwind (single choice tests) or 40 cm downwind (dual choice test) of the target, which was either a plant or a synthetic compound (10 μg in 10 μl hexane) placed on a 2×1 cm strip of filter paper (Whatman No. 1) surrounded by a ring of green crêpe paper. The proportions of parasitoids responding with an oriented flight to the synthetic chemicals were calculated each day on 3 separate days. These values were then subjected to a logit transformation to normalize the data before being analysed by ANOVA followed by Tukey post-hoc tests. The number of parasitoids orienting upwind to the single plant target were recorded and subjected to a χ^2 contingency test (Pearson method on Genstat—see Genstat 5 Committee. Genstat 5 Reference Manual, Release 3 (Clarendon Press, Oxford, 1993)) to determine whether an orienting response was linked to the type of plant treatment. The numbers orienting to each plant in the dual choice test were analysed by a χ^2 to determine whether one plant was more attractive than the other.

[3] = test system: D251 sequence in Vicia faba plants; experiment: Differential display and northern blot of gene-specific sequence D251; assay type: in vivo; conditions: northern blot, versus air
Description: Total RNA was isolated from stem or leaf tissue of plants exposed to air, methyl jasmonate or cis-jasmone. 10 μg RNA per sample was loaded and separated on a formaldehyde gel (Panel A). The samples were then transferred to a nylon membrane and probed with the D251 sequence (Panel B). Lane 1=air treatment (control); lane 2=cis-jasmone treatment; lane 3=methyl jasmonate treatment. In the case of RNA isolated from leaf tissue, only cis-jasmone treatment results in upregulation. In order to determine if cis-jasmone was capable of inducing alterations in plant gene expression, the sensitive technique of differential display was carried out on RNA extracted from plants which had been exposed to air, methyl jasmonate or cis-jasmone. […] To confirm this observation, bands of interest were recovered by excision from the dried gel and re-amplified with the appropriate pair of oligonucleotide primers. The resulting PCR products were cloned and sequenced to confirm the homogeneous nature of the amplified product. These sequences were then used to probe RNA isolated from control or treated V. faba plants. […] It is important to note that the nature of the differential display technique generates short gene-specific probes, containing mainly 3′ untranslated regions of transcribed sequences, and therefore the functional part of the differentially expressed gene is unknown. Thus, using differential display and confirmatory northern blotting, we have shown that methyl jasmonate and cis-jasmone have apparently distinct effects on plant gene expression. […] Thus, the two compounds have distinct effect on plant gene expression and the response to these signalling compounds may be tissue-specific.

[4] = test system: lettuce aphid Nasonovia ribis-nigri; experiment: 4-way olfactometer behavioural assay with alate lettuce aphids; assay type: in vivo; conditions: 1 μg in hexane on filter paper, 10 min, P<0.05
Description: Behavioural assays were done in a Perspex™ olfactometer similar to that described in J. Entomol. Scand. 1, 63-73 (1970) (Pettersson), with a weak airstream directed towards the centre from each of 4 side arms. The test compound (1 μg) in hexane (10 μl) was placed on filter paper (Whatman No. 1) at the end of one of the side arms, with hexane alone used as a control in the other arms. One alate virginopara of N. ribis-nigri was placed in the centre of the arena and its movements observed over 10 min. The apparatus, maintained at 24° C., was lit from above by fluorescent tubing and was rotated 90° every 2.5 min to avoid any directional bias. The experiment was replicated 6 times and results analysed by Student's t-test.

**Q.** `CC/C=C\CC1=C(C)CCC1=O` [cis-jasmone] was tested. Which “release of (E,E)-α-farnesene, (−)-β-caryophyllene and (E)-4,8-dimethyl-1,3,7-nonatriene” value [1] did it give?
**A.** enhancement

**Q.** And the “% showing oriented flight” value [2]?
**A.** 53.1^a %

**Q.** And the “expression of D251 sequence in leaf tissue” value ([3]; RNA from leaf tissue of plants exposed to vapour)?
**A.** upregulated

**Q.** What about the “expression of D251 sequence in stem tissue” value ([3]; RNA from stem tissue of plants exposed to vapour) of the same molecule?
**A.** upregulated to a similar level

**Q.** And the “mean number of entries into the treated arm” value ([4]; 6 replicates, control arms 4.3±0.58)?
**A.** 2.0±0.58

**Q.** What about the “mean time spent in the treated arm” value ([4]; control arms 2.1±0.36 minutes) of the same molecule?
**A.** 0.5 ± 0.16 min
